Measured values as given in patent US11999727B2 (Tango Therapeutics, Inc., priority 2020, dated 2024).
Where two headings read alike, the source gives them in different places.

How the values were obtained:
PRMT5 [1] = target: T1, PRMT5 (Homo sapiens, UniProt O14744); experiment: PRMT5 biochemical IC50 assay with SAM as cofactor
T1 construct: purchased Viva (custom protein)

PRMT5 [2] = target: T1, PRMT5; experiment: PRMT5 biochemical IC50 assay with no cofactor
Excerpt: Table 1 indicates IC50 values (μM) against PRMT5 for exemplary compounds in the presence of SAM as cofactor, with no cofactor, and with MTA as cofactor, respectively (columns 4-6). […] Ki values can be calculated from the IC50 values as described in the Examples section. As detailed in the Examples section, for the assay performed in the presence of SAM, IC50=Ki×1.5 (Ki=IC50/1.5).

PRMT5 [3] = target: T1, PRMT5; experiment: PRMT5 biochemical IC50 assay with MTA as cofactor
[4] = tested on: HAP1 MTAP-intact cell line; experiment: SDMA in-cell western assay, HAP1 MTAP-intact; type: cell-based; conditions: Homo sapiens
Summary of the method: (§1)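 Compounds were tested in HAP1 cells differing only in MTAP status (endogenous expression versus null). Cellular SDMA levels were then measured by in-cell western, giving an IC50 in each background.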

[5] = tested on: HAP1 MTAP-deleted cell line; experiment: SDMA in-cell western assay, HAP1 MTAP-deleted; type: cell-based; conditions: for IC50: Homo sapiens; for MTAP intact/deleted ratio: SDMA in-cell western
Summary of the method: as §1

[6] = tested on: HAP1 MTAP-deleted cell line; experiment: Viability assay, MTAP-deleted cell line; type: cell-based; conditions: Homo sapiens
Excerpt: Table 1 additionally indicates IC50 values in a viability assay for the MTAP-deleted cell line (column 10), indicating the effect of treatment with compound on cell survival.

[7] = HAP1, read-out: MTAP HAP1 intact IC50
[8] = HAP1, read-out: HAP1 MTAP deleted IC50
[9] = HAP1, read-out: HAP1 MTAP deleted viability
[10] = PRMT5, SAM as cofactor, read-out: SAM IC50
[11] = PRMT5, no cofactor, read-out: No Cofactor/rel IC50
[12] = PRMT5, MTA as cofactor, read-out: MTA IC50
[13] = HAP1, SDMA in-cell western, HAP1 MTAP-intact, read-out: MTAP HAP1 intact IC50
[14] = HAP1, SDMA in-cell western, HAP1 MTAP-deleted, read-out: HAP1 MTAP deleted IC50
[15] = IC50 ratio HAP1 MTAP-intact / HAP1 MTAP-deleted
[16] = HAP1, viability assay, HAP1 MTAP-deleted, read-out: HAP1 MTAP deleted viability
[17] = HAP1, SDMA in-cell western, HAP1 MTAP-deleted, read-out: HAP 1 MTAP deleted IC50
[18] = HAP1, viability assay, MTAP-deleted cell line, read-out: HAP1 MTAP deleted viability
[19] = PRMT5, no cofactor, read-out: No Cofactor/ rel IC50

T1 sequence (O14744 whole entry): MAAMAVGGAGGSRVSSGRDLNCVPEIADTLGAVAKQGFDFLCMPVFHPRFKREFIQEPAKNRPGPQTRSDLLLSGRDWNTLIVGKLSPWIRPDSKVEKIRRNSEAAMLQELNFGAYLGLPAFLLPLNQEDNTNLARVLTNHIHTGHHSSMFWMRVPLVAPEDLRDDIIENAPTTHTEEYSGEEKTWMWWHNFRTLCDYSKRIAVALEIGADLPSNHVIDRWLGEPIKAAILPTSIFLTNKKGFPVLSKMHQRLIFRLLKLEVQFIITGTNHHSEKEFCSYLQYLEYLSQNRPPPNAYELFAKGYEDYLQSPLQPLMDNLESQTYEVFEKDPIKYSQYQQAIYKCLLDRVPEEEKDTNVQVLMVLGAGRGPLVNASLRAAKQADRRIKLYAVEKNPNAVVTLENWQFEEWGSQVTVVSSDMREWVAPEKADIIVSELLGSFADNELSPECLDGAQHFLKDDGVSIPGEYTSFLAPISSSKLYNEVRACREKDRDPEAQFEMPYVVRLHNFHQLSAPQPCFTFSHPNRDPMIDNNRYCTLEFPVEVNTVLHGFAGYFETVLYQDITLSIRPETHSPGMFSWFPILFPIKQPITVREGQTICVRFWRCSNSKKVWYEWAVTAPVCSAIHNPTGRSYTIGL
T1 sequence (Q9BQA1 whole entry partner): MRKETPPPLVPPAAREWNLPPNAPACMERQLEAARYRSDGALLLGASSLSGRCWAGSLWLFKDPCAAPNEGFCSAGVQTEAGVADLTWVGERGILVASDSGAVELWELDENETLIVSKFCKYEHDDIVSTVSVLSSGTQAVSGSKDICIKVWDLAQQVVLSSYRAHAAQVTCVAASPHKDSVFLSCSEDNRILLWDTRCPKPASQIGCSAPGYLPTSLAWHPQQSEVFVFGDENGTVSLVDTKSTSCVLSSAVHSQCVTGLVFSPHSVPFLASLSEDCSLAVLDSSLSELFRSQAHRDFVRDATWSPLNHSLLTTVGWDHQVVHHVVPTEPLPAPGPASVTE

Structure (SMILES)	IC50 (PRMT5 [1]; SAM IC50, PRMT5, SAM as cofactor) [nM]	IC50 (PRMT5 [2]; No Cofactor/rel IC50, PRMT5, no cofactor) [nM]	IC50 (PRMT5 [3]; MTA IC50, PRMT5, MTA as cofactor) [nM]	IC50 [4, 7] [nM]	IC50 [5, 8] [nM]	MTAP intact/deleted ratio ([5]; IC50 ratio HAP1 MTAP-intact vs HAP1 MTAP-deleted)	IC50 [6, 9] [nM]	IC50 (PRMT5 [1]; [10]) [nM]	IC50 (PRMT5 [2]; [11]) [nM]	IC50 (PRMT5 [3]; [12]) [nM]	IC50 [4, 13] [nM]	IC50 [5, 14] [nM]	MTAP intact/deleted ratio [5, 15]	IC50 [6, 16] [nM]	IC50 [5, 17] [nM]	IC50 ([6]; HAP1, viability IC50, MTAP-deleted cell line, read-out: HAP1 MTAP deleted viability) [nM]	IC50 [6, 18] [nM]	IC50 (PRMT5 [2]; [19]) [nM]	IC50 ([6]; HAP1, viability, HAP1 MTAP-deleted cell line, read-out: HAP1 MTAP deleted viability) [nM]
CCc1cc(NC(=O)C(=O)N2C[C@@H](C)CC[C@@H]2c2ccc3sc(C4(OC)CCN(C)CC4)nc3c2)cnc1N [Compound 1118, N-(6-amino-5-ethylpyridin-3-yl)-2-((2R,5S)-2-(2-(4-methoxy-1-methylpiperidin-4-yl)benzo[d]thiazol-5-yl)-5-methylpiperidin-1-yl)-2-oxoacetamide]	< 50	< 50	< 50	< 100	< 100	A (an IC50 ratio greater than or equal to 10 fold)	< 1000	–	–	–	–	–	–	–	–	–	–	–	–
Cc1cc(NC(=O)C(=O)N2C[C@@H](C)CC[C@@H]2c2ccc(CO)cc2)cnc1N (single isomer, unassigned) [Compound 806]	–	–	–	–	–	–	–	50 to 500	< 50	< 50	100 to 1000	< 100	A (an IC50 ratio greater than or equal to 10 fold)	< 1000	–	–	–	–	–
C[C@@H]1CC[C@@H](c2cccc(Br)c2)N(C(=O)C(=O)Nc2cncc(C(N)=O)c2)C1 (racemic) [Compound 601, 5-(2-(2-(3-bromophenyl)-5-methylpiperidin-1-yl)-2-oxoacetamido)nicotinamide]	–	–	–	–	–	–	–	50 to 500	50 to 500	50 to 500	> 1000	–	A (an IC50 ratio greater than or equal to 10 fold)	–	< 100	1000 to 10000	–	–	–
C[C@H]1CC[C@H](c2ccc3sc(CCN(C)C)nc3c2)N(C(=O)C(=O)Nc2cncc(C(N)=O)c2)C1 (single isomer, unassigned) [Compound 1128]	–	–	–	–	–	–	–	> 500	> 500	> 500	> 1000	100 to 1000	–	–	–	–	1000 to 10000	–	–
COc1ncc(NC(=O)C(=O)N2C[C@H](C)CC[C@H]2c2ccc(NS(C)(=O)=O)nc2)cc1C(N)=O (single isomer, unassigned) [Compound 986]	–	–	–	–	–	–	–	> 500	50 to 500	< 50	> 1000	–	A (an IC50 ratio greater than or equal to 10 fold)	–	100 to 1000	–	1000 to 10000	–	–
COc1ncc(NC(=O)C(=O)N2C[C@@H](C)CC[C@@H]2c2ccc3sc(CCN4CCCC4)nc3c2)cc1C(N)=O [Compound 1288, 2-methoxy-5-(2-((2R,53)-5-methyl-2-(2-(2-(pyrrolidin-1-yl)ethyl)benzo[d]thiazol-5-yl)piperidin-1-yl)-2-oxoacetamido)nicotinamide]	–	–	–	–	–	–	–	50 to 500	–	< 50	100 to 1000	–	A (an IC50 ratio greater than or equal to 10 fold)	–	< 100	–	–	50 to 500	< 1000
Cc1cc(NC(=O)C(=O)N2C[C@@H](C)CC[C@@H]2c2ccc(N3CCN(C)CC3)nc2)cnc1N (single isomer, unassigned) [Compound 1017]	–	–	–	–	–	–	–	> 500	> 500	> 500	> 1000	–	C (an IC50 ratio of less than 3 fold)	–	> 1000	–	< 1000	–	–
COc1ncc(NC(=O)C(=O)N2C[C@H](C)CC[C@H]2c2ccc3scnc3c2)cc1C(N)=O (single isomer, unassigned) [Compound 603]	–	–	–	> 1000	> 1000	–	> 10000	> 500	> 500	> 500	–	–	C (an IC50 ratio of less than 3 fold)	–	–	–	–	–	–
COc1ncc(NC(=O)C(=O)N2C[C@@H](C)CC[C@@H]2c2ccccc2)cc1C(N)=O (single isomer, unassigned) [Compound 291]	–	–	–	> 1000	> 1000	–	> 10000	> 500	> 500	> 500	–	–	C (an IC50 ratio of less than 3 fold)	–	–	–	–	–	–
Cc1cc(NC(=O)C(=O)N2C[C@@H](C)CC[C@@H]2c2cc(F)c(F)c(F)c2)cnc1N (single isomer, unassigned) [Compound 487]	–	–	–	–	–	–	–	> 500	> 500	> 500	> 1000	> 1000	C (an IC50 ratio of less than 3 fold)	–	–	–	> 10000	–	–
C[C@@H]1CC[C@@H](c2cccnc2)N(C(=O)C(=O)Nc2cncc(C(N)=O)c2)C1 (racemic) [Compound 102, 5-[[2-[5-methyl-2-(3-pyridyl)-1-piperidyl]-2-oxo-acetyl]amino]pyridine-3-carboxamide]	–	–	–	–	–	–	–	50 to 500	–	< 50	> 1000	–	A (an IC50 ratio greater than or equal to 10 fold)	–	100 to 1000	–	> 10000	50 to 500	–
C[C@@H]1CC[C@@H](c2cccc(F)c2)N(C(=O)C(=O)Nc2cncc(C(N)=O)c2)C1 (racemic) [Compound 247, rac-5-{2-[(2R,5S)-2-(3-Fluorophenyl)-5-methylpiperidin-1-yl]-2-oxoacetamido}pyridine-3-carboxamide]	–	–	–	–	–	–	–	50 to 500	50 to 500	< 50	> 1000	< 100	A (an IC50 ratio greater than or equal to 10 fold)	–	–	–	1000 to 10000	–	–
Cc1c(NC(=O)C(=O)N2[C@@H](C)CCC[C@H]2c2ccccc2)cnc(N)c1C (single isomer, unassigned) [Compound 425]	–	–	–	–	–	–	–	50 to 500	50 to 500	< 50	> 1000	100 to 1000	A (an IC50 ratio greater than or equal to 10 fold)	–	–	–	1000 to 10000	–	–
CC(=O)N1CCC(c2cccc([C@H]3CC[C@H](C)CN3C(=O)C(=O)Nc3cnc(N)c(C)c3)c2)CC1 (single isomer, unassigned) [Compound 324]	–	–	–	–	–	–	–	50 to 500	< 50	< 50	100 to 1000	< 100	A (an IC50 ratio greater than or equal to 10 fold)	–	–	–	< 1000	–	–
CCc1cc(NC(=O)C(=O)N2C[C@@H](C)CC[C@@H]2c2ccc(NC)nc2)cnc1N (single isomer, unassigned) [Compound 878]	–	–	–	–	–	–	–	> 500	> 500	> 500	> 1000	> 1000	C (an IC50 ratio of less than 3 fold)	> 10000	–	–	–	–	–
Cc1cc(NC(=O)C(=O)N2C[C@@H](C)CC[C@@H]2c2ccc3sc(N)nc3c2)cnc1N (single isomer, unassigned) [Compound 997]	–	–	–	–	–	–	–	50 to 500	< 50	< 50	< 100	–	B (an IC50 ratio greater than or equal to 3 fold but lower than 10 fold)	–	< 100	–	< 1000	–	–
